The text below walks through data of patent US12201632B2, “Levoketoconazole for treatment of congenital adrenal hyperplasia and primary aldosteronism” (Strongbridge Dublin Limited, priority 2018, dated 2025).

For orientation: pIC50 means the IC50 on a negative log10 scale, so that one unit is a factor of ten.

One assay has as its system HAC15 cells. The assay can be described thus: Cortisol production by HAC15 cells (immunoassay). The class given is cell-based, Human. Conditions: HAC15, after 3 days of treatment (FIG. 1B). Here is the method:
Human adrenocortical carcinoma HAC15 and mouse corticotroph AtT20 cells were used, purchased as a kind gift by Dr. W. Rainey, and obtained from Dr. J. Tooze (European Organization for Molecular Biology), respectively. Both cell lines were cultured in 75 cm^2 flasks at 37° C. in a humidified incubator (Greiner Bio-One, Alphen a/d Rijn, the Netherlands) at 5% CO2. Dulbecco's Modified Eagle Medium F12 containing 5% fetal calf serum was used for HAC15, whereas AtT20 cells were cultured in Dulbecco's minimal essential medium (DMEM) supplemented with 10% fetal calf serum. Both mediums were supplemented with L-glutamine (2 mmol/L) and penicillin (10^5 U/L). Short tandem repeat (str) profiling using a Powerplex Kit (Promega, Leiden, the Netherlands) of HAC15 and AtT20 gave results consistent with the ATCC database, confirming the identity of both cell lines. Medium and supplements were obtained from Invitrogen, Breda, the Netherlands. Once a week, cells were harvested with trypsin (0.05%)-EDTA (0.53 mM) and resuspended in culture medium. Levoketoconazole (COR-003) and racemic ketoconazole (both from Cortendo AB) were dissolved in absolute ethanol (EtOH), according to manufacturer's instructions, and stored at −20° C. at a stock concentration of […]. At the start of each experiment, both drugs were freshly prepared and diluted in EtOH in the correct concentrations. Synacten (synthetic ACTH, Novartis Pharma A.G.) stock concentration was stored at 4° C. and dissolved in culture medium at the day of use. The final concentrations of ACTH were chosen based on a dose-response curve in HAC15 cells and previously reported studies in the literature. For HAC15, 200,000 and 100,000 cells were plated in 0.5 ml medium in 24 well plates for experiments of 1 and 3 days, respectively. […]
Cortisol concentrations were measured in the supernatant using a chemiluminescence immunoassay system (Immulite 2000XPi; Siemens DPC Inc., Los Angeles, Calif., USA). In addition, we carried out multi-steroid analysis by liquid chromatography/mass spectrometry (LC/MS-MS) to accurately quantify androstenedione, corticosterone, cortisol, 11-deoxycortisol, DHEA, DHEAS, progesterone, 17-hydroxyprogesterone, and testosterone. […] Steroids were quantified with respect to a calibration series, with internal standards. Steroids were quantified on a Xevo TQS LC-MS/MS (Waters Chromatography).
Statistical analysis was performed using Graphpad Prism 6.0 (Graphpad Software, San Diego, CA). […] Effects of both compounds on the steroid profile were measured as absolute change compared to control and compared using the Student's t-test. When assessing differences between effects of both compounds, the percentage change was evaluated and compared in order to correct for differences in the vehicle treated control cells. […]

For another assay, the system named is AtT20 cells. The assay can be described thus: Cell number of corticotroph pituitary AtT20 cells. The class given is cell-based, mouse. Conditions: for pIC50: AtT20, after 7 days, read-out: IC50 inhibition of cell number. Here is the method:
Human adrenocortical carcinoma HAC15 and mouse corticotroph AtT20 cells were used, purchased as a kind gift by Dr. W. Rainey, and obtained from Dr. J. Tooze (European Organization for Molecular Biology), respectively. Both cell lines were cultured in 75 cm^2 flasks at 37° C. in a humidified incubator (Greiner Bio-One, Alphen a/d Rijn, the Netherlands) at 5% CO2. Dulbecco's Modified Eagle Medium F12 containing 5% fetal calf serum was used for HAC15, whereas AtT20 cells were cultured in Dulbecco's minimal essential medium (DMEM) supplemented with 10% fetal calf serum. Both mediums were supplemented with L-glutamine (2 mmol/L) and penicillin (10^5 U/L). Short tandem repeat (str) profiling using a Powerplex Kit (Promega, Leiden, the Netherlands) of HAC15 and AtT20 gave results consistent with the ATCC database, confirming the identity of both cell lines. Medium and supplements were obtained from Invitrogen, Breda, the Netherlands. Once a week, cells were harvested with trypsin (0.05%)-EDTA (0.53 mM) and resuspended in culture medium. Levoketoconazole (COR-003) and racemic ketoconazole (both from Cortendo AB) were dissolved in absolute ethanol (EtOH), according to manufacturer's instructions, and stored at −20° C. at a stock concentration of 10^−2 μM. At the start of each experiment, both drugs were freshly prepared and diluted in EtOH in the correct concentrations. Synacten (synthetic ACTH, Novartis Pharma A.G.) stock concentration was stored at 4° C. and dissolved in culture medium at the day of use. The final concentrations of ACTH were chosen based on a dose-response curve in HAC15 cells and previously reported studies in the literature. For HAC15, 200,000 and 100,000 cells were plated in 0.5 ml medium in 24 well plates for experiments of 1 and 3 days, respectively. For AtT20, cell amounts were 100,000 and 30,000. One day after seeding the HAC15 cells, the medium was refreshed and cells were treated 1 or 3 days in quadruplicate with levoketoconazole or racemic ketoconazole (0.05-5 μM), with or without 10 nM ACTH. To study effects of both compounds on pituitary AtT20 cells, concentrations of 0.1 to 10 μM of both drugs were used. Controls were vehicle treated. […] All cell culture experiments were carried out at least twice.
As a measure of cell number, DNA concentrations were determined using the bisbenzimide fluorescent dye (Hoechst 33258, Sigma Aldrich), as previously described.
Statistical analysis was performed using Graphpad Prism 6.0 (Graphpad Software, San Diego, CA). Non-linear regression curve fitting program was used to calculate the half maximal inhibitory concentrations (IC50) on cortisol production. Effects of both compounds on the steroid profile were measured as absolute change compared to control and compared using the Student's t-test. When assessing differences between effects of both compounds, the percentage change was evaluated and compared in order to correct for differences in the vehicle treated control cells. Values of P<0.05 were considered statistically significant and data are presented as mean SEM.

[1] abbreviates: AtT20, after 3 and 7 days of treatment.

Molecules are shown by their SMILES. pIC50: −log10 of the molar value. Where two headings read alike, the source gives them in different places.

Take `CC(=O)N1CCN(c2ccc(OC[C@@H]3CO[C@@](Cn4ccnc4)(c4ccc(Cl)cc4Cl)O3)cc2)CC1` (relative stereo) [levoketoconazole, 2S,4R cis-1-acetyl-4-[4-[[2-(2,4-dichlorophenyl)-2-(1H-imidazol-1-ylmethyl)-1,3-dioxolan-4-yl]methoxyl]phenyl]piperazine]: the pIC50 is 6.52 with HAC15 cells and 5.98 in the assay with AtT20 cells. The “effect on cell number” value with AtT20 cells (setting [1]) is given as “inhibited cell number”; in the assay with AtT20 cells (AtT20, after 24 h of treatment), “no effect”.
Consider `CC(=O)N1CCN(c2ccc(OCC3COC(Cn4ccnc4)(c4ccc(Cl)cc4Cl)O3)cc2)CC1` (racemic) [racemic ketoconazole, Ketoconazole], for which the negative logarithm of the IC50 (pIC50) in the assay with HAC15 cells (Homo sapiens, 72 h) was 6.21; with AtT20 cells (Mus musculus, 168 h), 5.24. In addition, the “effect on cell number” value in the assay on AtT20 cells (setting [1]) was “inhibited cell number”; in the assay with AtT20 cells (AtT20, after 24 h of treatment), “no effect”.
